Laboratory results from patent publication US20210254056A1, “IDENTIFICATION AND TARGETED MODULATION OF GENE SIGNALING NETWORKS” (CAMP4 THERAPEUTICS CORPORATION, priority 2017, published 2021).

What was measured:
[1] = tested on: primary human hepatocytes; assay: RNA-seq of primary human hepatocytes treated with 39 small molecules (pilot and validation); conditions: for RNA-seq fold Δ (Log2): primary human hepatocytes; for Expected fold Δ: fold expected from RNA-seq Log2
[2] = tested on: primary human hepatocytes; assay: qRT-PCR validation of gene expression in hepatocytes from a second donor; type: cell-based
Method: qRT-PCR was performed on samples of primary human hepatocytes from a second donor. […] The 58 liver disease associated genes analyzed were ACADVL, ACAT2, ACSL1, ACSL5, AGPAT2, AGTR1, AHSG, ALAS1, AMACR, ANGPTL2, ARG1, CA12, CA2, CIDEC, COL1A1, CPS1, CPT1A, CPT2, CYP21A2, CYP2C19, CYP3A4, CYP7A1, ECH1, ENO3, ETFDH, FABP1, FABP6, G6PC, GHR, GLA, GYS2, HGD, HMGCR, HMGCS2, HMOX1, HOGA1, HPGD, IFT27, LDHA, LPIN2, MOGAT2, NCF2, PCSK9, POR, RMRP, SLC25A20, SLC2A2, SLC37A4, SLC51B, SLC6A20, SLC6A6, SOAT2, SULT2A1, TAT, TDO2, TMEM135, TNFSF11, and VLDLR as shown in Example 2.

CCOC(=O)N1c2ccc(C(F)(F)F)cc2[C@@H](N(Cc2cc(C(F)(F)F)cc(C(F)(F)F)c2)C(=O)OC)C[C@H]1CC [Torcetrapib]
RNA-seq fold Δ (Log2) ([1]; ACAT2 gene): 1.22 Log2 | Expected fold Δ ([1]; ACAT2 gene): 2.33 fold | RNA-seq fold Δ (Log2) ([1]; CYP7A1 gene): −1.42 Log2 | Expected fold Δ ([1]; CYP7A1 gene): 0.37 fold | RNA-seq fold Δ (Log2) ([1]; HMGCR gene): 1.26 Log2 | Expected fold Δ ([1]; HMGCR gene): 2.39 fold | RNA-seq fold Δ (Log2) ([1]; PCSK9 gene): 1.07 Log2 | Expected fold Δ ([1]; PCSK9 gene): 2.10 fold | RNA-seq fold Δ (Log2) ([1]; TNFS11 gene): 1.09 Log2 | Expected fold Δ ([1]; TNFS11 gene): 2.13 fold | Fold Δ ([2]; ACAT2 gene): 2.87 fold | Fold Δ ([2]; CYP7A1 gene): 0.85 fold | Fold Δ ([2]; HMGCR gene): 4.02 fold | Fold Δ ([2]; PCSK9 gene): 5.76 fold | Fold Δ ([2]; TNFS11 gene): 1.01 fold
